From US20160176924A1, “MODIFIED PEPTIDES AS POTENT INHIBITORS OF THE PSD-95/NMDA RECEPTOR INTERACTION” (priority 2008, published 2016)
“And” between values parts separate entries of the source, which are not always exact repeats. Equal entries are not always repeated. Ends that are not written are not given here.

Experiments:
PDZ1-2 tandem of PSD-95 = biological target: T1, PDZ1-2 tandem of PSD-95 (Homo sapiens, UniProt P78352); test: FP heterologous competition binding assay; details: mean ± SEM
T1 construct: PDZ1-2 (residues 61-249) tandem; made in house; host or cells: E. coli BL21-DE3 pLysS
Description: (§1) Determined IC50 values may be converted to Ki values.^5 Suitable fluorophores include either 5-FAM or Cy5, which may be coupled to a tripeptide (KSG or CSG) linker attached to the N-terminus of the undecapeptide, to give 5-FAM-NR2B, Cy5-NR2B, 5-FAM-CRIPT and Cy5-CRIPT. The 5-FAM fluorophore may be attached to the undecapeptides by coupling with HATU. The Cy5 fluorophore may be conjugated to the undecapeptides by coupling Cy5-maleimide to the cysteine side chain of the tripeptide sequence CSG attached to the N-terminus of the peptide, as detailed in the Methodology section.
(§2) To measure the affinities between non-fluorescent peptides and PDZ domains, heterologous competition bindings assay were performed. This was done by adding increasing concentrations of peptide to a fixed concentration of Cy5-NR2B, 5-FAM-NR2B, Cy5-CRIPT or 5-FAM-CRIPT (50 nM) and PDZ (20 μM for PDZ1, 3 μM for PDZ2 and 1-2 and 5 μM for PDZ3) in the same TBS buffer and conditions as described above. FP values were then fitted to the general equation: Y=Bottom+(Top−Bottom)/[1[…](10̂^X-logIC50)], where X is the logarithmic value of peptide concentration. Hereby the IC50 value was obtained, which is used to calculate the theoretical competitive inhibition constant, Ki.^5
(§3) A convenient and reliable way to examine interactions between peptide analogues and PDZ domains is by using a fluorescence polarization (FP) assay. The three PDZ domains, PDZ1-3, of PSD-95 were expressed individually as set out above, while PDZ1-2 was also expressed as a tandem construct. […] IC50 values were then converted to Ki values.^5

PDZ1-2 of PSD-95 = biological target: T2, PDZ1-2 of PSD-95 (Homo sapiens, UniProt P78352); test: Isothermal titration calorimetry (ITC); type: binding; details: for Kd: 25° C., PBS pH 7.4, mean ± SEM, read-out: ITC Kd PDZ12
T2 construct: PDZ1-2 (residues 61-249) tandem; made in house; host or cells: E. coli BL21-DE3 pLysS
Description: This technique (Pierce, M. et al., 1999., Methods, p. 213-221) provides an exact determination of the affinity of a ligand for its target protein, as well as measuring the thermodynamic properties of the interaction, including enthalpy (ΔH), entropy (ΔS) and free energy (ΔG) together with the stoichiometric relationship of ligand binding. In this method, un-labeled ligand is titrated into a solution of un-labeled PDZ protein located in the calorimeter. Heat generated upon protein recognition is measured (ΔH) during the titration of the ligand and the PDZ protein until saturation is achieved, and the heat-exchange upon further ligand addition is negligible. Based on the amount of ligand needed to achieve saturation an affinity constant (Kd) is calculated and in addition ΔH, ΔS, ΔG and stoichiometry are determined.
Calorimetry experiments were performed on a microcalorimeter (Microcal, MA, USA). The ligands were titrated directly into the PDZ solution. All ligands and PDZ proteins were solubilized in PBS buffer (137 mM NaCl, 2.7 mM KCl, 10 mM Na2HPO4, 2 mM KH2PO4, pH 7.4) and when necessary pH was adjusted to 7.4 within 0.02 pH units after solubilization. The concentration of peptide and PDZ in solution was quantified by amino acid analysis. The calorimetry experiments were conducted at 25° C., where the PDZ1-2 concentration was generally adjusted to about 20 μM (200 μL in calorimeter) and the ligand concentration to between 200-2500 μM (injected to the protein as 20×2 μL). Experiments were designed so that c-value (c-value=Ka*[Protein]*n; where Ka is the affinity association constant, [Protein] means protein concentration, and n is the stoichiometry of the reaction) was within 1-1000. The analysed solution was stirred at 1000 rpm, with a reference power of 6 μcal/s. Heats of dilution were initially determined by titrating the ligand into buffer and subtracting these baseline values from the observed “heat values”. The data from each titration experiment were collected by ORIGIN 7.0 (Microcal, MA, USA), which was also used to determine the thermodynamic properties of ligand binding using non-linear least-squares fitting assuming a single-site model.

[1] = Human blood plasma stability assay; type: in vitro ADME; details: for half-life at […]: human, plasma, Blood plasma half life (T1/2)
Protocol: In this assay, the half-life (T1/2) of a compound in blood plasma is measured in vitro, whereby its susceptibility to degradation by proteases, peptidases and general plasma contents is quantified.
Compounds of interest were dissolved in human blood plasma (270 μl; 3H Biomedical, Sweden, cat no 1300-1-P50) to a concentration of 0.25 mM (30 μL of 2.5 mM) and incubated at 37° C. Aliquots (30 μl) were removed at various time intervals (0, 5, 10, 20, 40, 80, 160, 320, 960, 1280, 2550, 4560 and 7240 min) and quenched with 60 μL trichloroacetic acid (aq., 5%). The aliquots were vortexed, and incubated for at least 15 min, at 4° C. prior to centrifugation at 18,000 g for 2 min and the supernatant was analyzed by RP-HPLC to quantify the remaining compound (absorbance at 218 nm).

PDZ2 of PSD-95 = biological target: T3, PDZ2 of PSD-95 (Homo sapiens, UniProt P78352); test: FP heterologous competition binding assay; details: for Ki: FP competition, mean ± SEM, NA = no activity/affinity
T3 construct: PDZ2 (residues 155-249); made in house; host or cells: E. coli BL21-DE3 pLysS
Description: as §1, §2, §3

PDZ1 of PSD-95 = biological target: T4, PDZ1 of PSD-95 (Homo sapiens, UniProt P78352); test: FP heterologous competition binding assay; details: for Ki: FP competition, mean ± SEM, NA = no activity/affinity
T4 construct: PSD-95 PDZ1 (residues 61-151); made in house; host or cells: E. coli BL21-DE3 pLysS
Description: as §1, §2, §3

[2] = test system: cultured cortical neurons; test: Neuronal NMDA excitotoxicity assay (LDH release); type: cell-based, rat; details: 500 nM
Description: When cultured cortical neurons are exposed to high concentrations of NMDA, an excitoxic cascade is initiated, which leads to cellular damage and ultimately neuronal cell death. Consequently, the cell membranes are destroyed, and cytoplasmic enzymes are released into the cell surroundings. The extent of this neuronal cell death can be quantified by measuring the release of cytoplasmic lactate dehydrogenase (LDH) enzyme into the cell medium. The compounds of interest and control compound (3) are investigated with respect to their abilities to attenuate NMDA-mediated toxicity. Compounds that are active in this assay are both membrane permeable, and can prevent ex vivo excitotoxicity, which are important properties for therapeutics towards excitotoxicity mediated diseases.
Cortical neurons were surgically removed from rats (e.g. E21) and then cultured for 7-9 days in vitro in Neurobasal A medium with B-27 supplement (each supplied by Invitrogen), further supplemented with 1 mM glutamine, 50 units/ml penicillin, and 50 μg/ml streptomycin. The following steps were then performed:
1. Samples of the cultured cortical neurons were removed from the Neurobasal-A based culture medium, at various time points prior to exposure to compound, and placed into “transfection medium” ([…]; as defined by Bading et al (1993) Science 260, 181-186) comprising: 10% modified Minimum Essential Medium (supplied by Invitrogen; product no: 21090022; containing Earles salt, but no L-glutamine), 90% Salt-Glucose-Glycine (SGG) medium: (114 mM NaCl, 0.219% NaHCO3, 5.292 mM KCL, 1 mM MgCl2, 2 mM CaCl2, 10 mM HEPES, 1 mM Glycine, 30 mM glucose, 0.5 mM sodium pyruvate, 0.1% Phenol Red), insulin-transferrin-selenite supplement (supplied by Sigma: 7.5 μg insulin/ml, 7.5 μg transferring/ml and 7.5 ng sodium selenite/ml); with a final osmolarity of 325 mosm/l. All subsequent steps were performed in this TM medium. 2. Samples of neurons are exposed to an NMDAR/PSD-95 inhibitor of the invention (compounds 40, 52-90) at a final concentration of between 0.05-50 μM for a period of between 0.5 to 1.5 hours. […] 3. Each sample of neurons was washed at least one time in TM medium to remove the NMDAR/PSD-95 inhibitor, and placed in TM medium. 4. After various periods of time, the samples of neurons were exposed to NMDA at a concentration of between 10-100 μM for a period of 0.5 to 1.5 hours, preferably 1 hour, after which the samples were again placed in TM medium for 24 hours. 5. LDH in the cell medium was quantified using commercial available kits (e.g. Promega Biotech AB, cat no G1780).

PDZ3 of PSD-95 = biological target: T5, PDZ3 of PSD-95 (Homo sapiens, UniProt P78352); test: FP heterologous competition binding assay; details: for Ki: FP competition, mean ± SEM, NA = no activity/affinity
T5 construct: PDZ3 (residues 309-401); made in house; host or cells: E. coli BL21-DE3 pLysS
Description: as §1, §2, §3

PSD-95's PDZ2 domain = biological target: T6, PSD-95's PDZ2 domain (Homo sapiens, UniProt P78352); test: Polyhistidine pull-down assay; type: binding; details: 200 μM
T6 construct: PDZ2 (residues 155-249); His-tag (thrombin-cleavable) (cleaved yes); made in house; host or cells: E. coli (as for the other PDZ constructs)
Description: The polyhistidine pull-down is an in vitro technique that consists of a polyhistidine-tagged bait NRB2 or CRIPT protein C-terminal domain (e.g NR2B WT peptide with the sequence [sequence]) that can be used to identify competitors of a PDZ domain-binding partner (PDZ domain of PSD-95) (the prey). The bait protein is immobilized on cobalt chelated affinity gel. The bait serves as the secondary affinity support for the protein partner to the bait and for identifying competitors that can displace the prey from the bait. The competitors are peptide analogues, specifically an NMDAR/PSD-95 inhibitor of the present invention. PPIs, between the prey and bait are analyzed by chemically dissociating/eluting the bound prey (PDZ domain or peptide analogue) and visualizing the prey by SDS-PAGE and associated detection methods depending on the sensitivity requirements of the interacting proteins. These methods include Coomassie® Dye, silver, and zinc staining; western blotting; and [^35S] radioisotopic detection. Alternatively, the displaced prey detected on the gel, can be isolated from a polyacrylamide gel, and further analyzed. […]
As bait, a polyhistidine NR2B WT peptide with the sequence [sequence] was synthesized. […] Eluted PDZ2 was analyzed by SDS-PAGE and silver staining.

| Compound | Ki (PDZ1-2 tandem of PSD-95) [µM] | Ki (PDZ2 of PSD-95) [µM] | Ki (PDZ1 of PSD-95) | effect on NMDA-mediated excitotoxicity, in words [2] | Ki (PDZ3 of PSD-95) [µM] | also measured |
| --- | --- | --- | --- | --- | --- | --- |
| CC(C)[C@H](NC(=O)[C@H](C)NC(=O)[C@@H](NC(=O)[C@H](C)NCCC1CCCCC1)[C@@H](C)O)C(=O)O [ATAV (73)] |  |  | 8.9 ± 1 µM | inhibit neuronal excitotoxicity, as efficiently as the clinical candidate Tat-N2B (3) |  |  |
| CC(C)[C@H](NC(=O)[C@H](C)NC(=O)[C@@H](NC(=O)[C@H](CCC(=O)O)NCCC1CCCCC1)C(C)O)C(=O)O (stereo partly drawn) [Compound 56, N-Cyclohexylethyl-ETAV] |  | 0.45 ± 0.13 | 1 µM and 0.94 µM | inhibit neuronal excitotoxicity, as efficiently as the clinical candidate Tat-N2B (3) | 11 ± 0.43 | fold increase in affinity (more potent) compared to NR2B peptide (1), PDZ1 (PDZ1 of PSD-95): ca. 19 fold; selectivity towards PDZ1 relatively to PDZ3 (PDZ1 of PSD-95): 10 fold; fold increase in affinity compared to NR2B peptide (1), PDZ2 (PDZ2 of PSD-95): 9 fold; selectivity towards PDZ2 relatively to PDZ3 (PDZ2 of PSD-95): 20 fold |
| CC(C)[C@H](NC(=O)[C@H](C)NC(=O)[C@@H](NC(=O)[C@H](CCC(=O)O)NCCc1ccc2ccccc2c1)C(C)O)C(=O)O (stereo partly drawn) [Compound 63, N-(Naphtalene-2-yl)ethyl-ETAV] |  |  | 1 ± 0.33 µM | inhibit neuronal excitotoxicity, as efficiently as the clinical candidate Tat-N2B (3) | 10 ± 0.22 |  |

The next lines start with results.

| Ki (PDZ1-2 tandem of PSD-95) [µM] | Ki (PDZ2 of PSD-95) [µM] | Compound | Ki (PDZ1 of PSD-95) | effect on NMDA-mediated excitotoxicity, in words [2] | Ki (PDZ3 of PSD-95) [µM] | also measured |
| --- | --- | --- | --- | --- | --- | --- |
| ~0.1 |  | CC[C@H](C)[C@H](NC(=O)CCOCCOCCOCCOCCOCCC(=O)N[C@H](C(=O)N[C@@H](CCC(=O)O)C(=O)N[C@@H](CO)C(=O)N[C@@H](CC(=O)O)C(=O)N[C@H](C(=O)O)C(C)C)[C@@H](C)CC)C(=O)N[C@@H](CCC(=O)O)C(=O)N[C@@H](CO)C(=O)N[C@@H](CC(=O)O)C(=O)N[C@H](C(=O)O)C(C)C [(IESDV)2PEG4 (78), (IESDV)2PEG4] |  |  |  | Kd (PDZ1-2 of PSD-95): 0.032 ± 0.01 µM; degradation in human blood plasma, in words [1]: no significant degradation could be detected over a time period of 6 days; half-life at […] [1]: > 133 h |
| ~0.1 | 1.1 ± 0.07 | CC[C@H](C)[C@H](NC(=O)CCOCCOCCOCCOCCOCCC(=O)N[C@H](C(=O)N[C@@H](CCC(=O)O)C(=O)N[C@H](C(=O)N[C@@H](C)C(=O)N[C@H](C(=O)O)C(C)C)[C@@H](C)O)[C@@H](C)CC)C(=O)N[C@@H](CCC(=O)O)C(=O)N[C@H](C(=O)N[C@@H](C)C(=O)N[C@H](C(=O)O)C(C)C)[C@@H](C)O [(IETAV)2PEG4 (83), (IETAV)2PEG4] |  |  |  | fold greater affinity towards PDZ1-2 compared to Tat-NR2B (3) (WT or Tat-NR2B) (PDZ1-2 of PSD-95): about 1000 fold; Kd (PDZ1-2 of PSD-95): 0.011 ± 0.01 µM; fold increase in ligand affinity by dimerization compared to monomeric IETAV (82) (PDZ1-2 of PSD-95; PDZ1-2): 176 fold; half-life at […] [1]: 6.82 h |
| 45 ± 4.1 | 25 ± 1.6 | CC(C)C[C@H](NC(=O)CNC(=O)[C@H](CO)NC(=O)[C@@H](N)CCCCN)C(=O)N[C@@H](CC(=O)O)C(=O)N[C@H](C(=O)N[C@@H](CCCCN)C(=O)N[C@@H](CC(N)=O)C(=O)N[C@@H](Cc1ccc(O)cc1)C(=O)N[C@@H](CCCCN)C(=O)N[C@@H](CCC(N)=O)C(=O)N[C@H](C(=O)N[C@@H](CO)C(=O)N[C@H](C(=O)O)C(C)C)[C@@H](C)O)[C@@H](C)O [CRIPT (2), reference compound] | 97 ± 18 µM |  | 2.1 ± 0.15 |  |
|  | 8.9 ± 0.5 | CN[C@@H](CCC(=O)O)C(=O)N[C@H](C(=O)N[C@@H](C)C(=O)N[C@H](C(=O)O)C(C)C)C(C)O (stereo partly drawn) [Compound 40, N-Methyl-ETAV] | 11 ± 0.47 µM |  | 78 ± 1.5 | fold increase in Ki (loss of affinity) compared to NR2B peptide (1), PDZ2 (PDZ2 of PSD-95): 2 fold; inhibition of PDZ2 binding to NR2B WT bait in pull-down, in words (PSD-95's PDZ2 domain): very effective inhibitor |
| 7 ± 0.19 | 4.1 ± 0.17 | KSGYEKLSSIESDV-OH [NR2B (1), reference compound] | 18 ± 0.92 µM |  |  | affinity to PDZ3, in words (PDZ3 of PSD-95; FP assay): no binding |
